Laboratory results published in patent US20260334439A1, “BCAT2 INHIBITORS” (Agios Pharmaceuticals, Inc., priority 2023, published 2026).
pIC50: −log10 of the molar value.

How the values were obtained:
[1] = biological target: T1, BCAT2 (Homo sapiens, UniProt O15382); test: BCAT2 in vitro enzyme inhibition assay (hBCAT2, glutamate dehydrogenase/diaphorase/resazurin coupled fluorescence read); format: biochemical; conditions: hBCAT2, 1 h preincubation at 25° C., one hour reaction; average where tested multiple times
T1 sequence (O15382 28-392): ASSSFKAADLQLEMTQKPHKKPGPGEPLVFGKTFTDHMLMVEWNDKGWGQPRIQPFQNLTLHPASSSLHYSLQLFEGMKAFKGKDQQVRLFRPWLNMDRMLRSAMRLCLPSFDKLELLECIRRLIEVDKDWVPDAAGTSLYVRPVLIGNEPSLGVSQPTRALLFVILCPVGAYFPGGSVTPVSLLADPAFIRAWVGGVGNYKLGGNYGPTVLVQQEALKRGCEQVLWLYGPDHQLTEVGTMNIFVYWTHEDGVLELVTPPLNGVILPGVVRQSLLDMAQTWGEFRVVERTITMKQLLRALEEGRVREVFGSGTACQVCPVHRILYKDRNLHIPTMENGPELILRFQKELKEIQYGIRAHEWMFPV
Outline: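 hBCAT2 (0.33 μg/mL in mix) preincubated 1 h at 25 °C with compound (top 100 μM, 3-fold, 10 points) in Tris pH 8.0/NaCl/BSA; substrate mix added (L-leucine, α-ketoglutarate, GDH, NAD, diaphorase, resazurin), quenched with SDS after 1 h, fluorescence Ex 540/Em 590; duplicates, repeat tests averaged.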

[2] = biological target: T1, BCAT2; test: BCAT2 cell inhibition using engineered A549 cells (MUT KO, BCAT1 KO; 13C6-KMV formation by LC-MS/MS); format: cell-based; set-up: expressed endogenous BCAT2; endogenous in cells; host or cells: A549 cells, MUT knockout and BCAT1 knockout
Outline: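 Medium 13C6-KMV formation is read by LC-MS/MS after PFBHA derivatization with d8-KMV internal standard. Cells are CRISPR MUT/BCAT1 double-knockout A549 expressing endogenous BCAT2, given compound 15 min before labelled isoleucine (800 uM, added 1:1) for 24 h. CTG viability run in parallel; replicates averaged.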

Structure (SMILES)	pIC50 [1]	pIC50 [2]
CC(=O)N1C[C@H](N2Cc3ccc(F)cc3C2=O)C[C@H](n2c(-c3ccccc3F)nc3cnc(-n4nccn4)cc32)C1 [Example 200, 2-((3R,5S)-1-acetyl-5-(2-(2-fluorophenyl)-6-(2H-1,2,3-triazol-2-yl)-1H-imidazo[4,5-c]pyridin-1-yl)piperidin-3-yl)-6-fluoroisoindolin-1-one]	> 7.00	> 7.00
CN1C[C@H](NC(=O)c2cc(F)ccn2)C[C@H](n2c(-c3ccccc3F)nc3cnc(-c4nc[nH]n4)cc32)C1 [Example 134, 4-fluoro-N-((3R,5S)-5-(2-(2-fluorophenyl)-6-(1H-1,2,4-triazol-3-yl)-1H-imidazo[4,5-c]pyridin-1-yl)-1-methylpiperidin-3-yl)picolinamide]	> 7.00	6.30 to 7.00
O=C(N[C@H]1CCC[C@@H](n2c(-c3ccccc3F)nc3cnc(-c4nc[nH]n4)cc32)C1)c1cc(Cl)ccc1OC1CCOC1 (stereo partly drawn) [Example 83, 5-chloro-N-((1S,3R)-3-(2-(2-fluorophenyl)-6-(1H-1,2,4-triazol-3-yl)-1H-imidazo[4,5-c]pyridin-1-yl)cyclohexyl)-2-((tetrahydrofuran-3-yl)oxy)benzamide]	> 7.00	> 7.00
O=C(N[C@H]1CCC[C@@H](n2c(-c3ccccc3F)nc3cnc(-c4nc[nH]n4)cc32)C1)c1cc(Cl)ccc1OCCCO [Example 82, 5-chloro-N-((1S,3R)-3-(2-(2-fluorophenyl)-6-(1H-1,2,4-triazol-3-yl)-1H-imidazo[4,5-c]pyridin-1-yl)cyclohexyl)-2-(3-hydroxypropoxy)benzamide]	> 7.00	> 7.00
O=C(N[C@H]1CCC[C@@H](n2c(-c3c(O)cccc3F)nc3ccc(-c4nc[nH]n4)cc32)C1)c1cc(Cl)ccn1 [Example 227, 4-chloro-N-((1S,3R)-3-(2-(2-fluoro-6-hydroxyphenyl)-6-(1H-1,2,4-triazol-3-yl)-1H-benzo[d]imidazol-1-l)cyclohexyl)picolin-amide]	> 7.00	6.30 to 7.00
O=C(N[C@H]1CCC[C@@H](n2c(-c3ccccc3F)nc3cnc(-c4nc[nH]n4)cc32)C1)c1cc(Cl)cc2ccoc12 [Example 31, 5-chloro-N-((1S,3R)-3-(2-(2-fluorophenyl)-6-(1H-1,2,4-triazol-3-yl)-1H-imidazo[4,5-c]pyridin-1-yl)cyclohexyl)benzofuran-7-carboxamide]	> 7.00	> 7.00
CO[C@H]1C[C@H](N2Cc3ccc(F)cc3C2=O)C[C@H](n2c(-c3ccccc3OCCO)nc3ccc(-c4ncccn4)cc32)C1 [Example 194, 6-fluoro-2-((1R,3S,5R)-3-(2-(2-(2-hydroxyethoxy)phenyl)-6-(pyrimidin-2-yl)-1H-benzo[d]imidazol-1-yl)-5-methoxycyclohexyl)isoindolin-1-one]	> 7.00	> 7.00

Continued, values first:

pIC50 [1]	pIC50 [2]	Structure (SMILES)
> 7.00	6.30 to 7.00	O=C(N[C@H]1CCC[C@@H](n2c(-c3ccccc3F)nc3cnc(-c4nc[nH]n4)cc32)C1)c1ccc(F)cn1 [Example 19, 5-fluoro-N-((1S,3R)-3-(2-(2-fluorophenyl)-6-(1H-1,2,4-triazol-3-yl)-1H-imidazo[4,5-c]pyridin-1-yl)cyclohexyl)picolinamide]
> 7.00	> 7.00	O=C(N[C@H]1CCC[C@@H](n2c(-c3ccccc3F)nc3cnc(-c4nc[nH]n4)cc32)C1)c1ccc(Cl)cn1 [Example 13, 5-chloro-N-((1S,3R)-3-(2-(2-fluorophenyl)-6-(1H-1,2,4-triazol-3-yl)-1H-imidazo[4,5-c]pyridin-1-yl)cyclohexyl)picolinamide]
> 7.00	6.30 to 7.00	N#Cc1ccccc1-c1nc2cnc(-c3nc[nH]n3)cc2n1[C@@H]1CCC[C@H](NC(=O)c2cc(F)ccc2F)C1 [Example 81, N-((1S,3R)-3-(2-(2-cyanophenyl)-6-(1H-1,2,4-triazol-3-yl)-1H-imidazo[4,5-c]pyridin-1-yl)cyclohexyl)-2,5-difluorobenzamide]
